Test results: EP3009422A1, “Photo-switchable sulfonylureas and their uses” (Ludwig-Maximilians-Universität München, priority 2014, dated 2016)

Assays:
SUR1 = target: T1, SUR1 (Rattus norvegicus, UniProt Q09429); experiment: [3H]-glibenclamide displacement radioassay in SUR1-expressing HEK293t cells; format: binding; conditions: displacement of [3H]-glibenclamide, SUR1-expressing HEK293t cells, n = 3
T1 construct: expressed in transfected cells; host or cells: HEK293t
Description: SUR1-expressing HEK293t cells were harvested and washed twice in assaying buffer containing in mM: 119 NaCl, 4.7 KCl, […], 1.2 KH2PO4, 1.2 MgSO4, 5 NaHCO3, and 20 HEPES, pH 7.4. In a 96-well plate, ∼200,000 cells/well were incubated for 50 min with [3H]-glibenclamide (PerkinElmer) and different concentrations of glimepiride (Sigma-Aldrich) or JB253. Incubation was terminated by rapid filtration through Whatman GF/C filters by means of a Brandel MWXR-96 TI harvester and filters were washed 3 times with ice-cold assay buffer. Radioactivity was counted 6 h after cell and filter lysis in 200 µL Rotiszint EcoPlus (Roth) using a Packard microbeta scintillation counter (PerkinElmer).
(§1) Data distribution was determined using the D'Agostino omnibus test. Non-multifactorial pairwise comparisons were made using either the Student's t-test. Interactions between multiple treatments were assessed using one-way ANOVA followed by pairwise comparisons using Bonferroni's post-hoc test. Effect sizes in islets/cells are usually sufficiently large that multiple animals/independent replication is a more important determinant of power in studies requiring statistical comparison. Non-linear regression was used to calculate the EC50 of normalized and log-transformed concentration-response curves. For [3H]-glibenclamide displacement assays, data points were fitted to the Hill equation before calculation of the halfmax value. In all cases, analysis was performed using Graphpad Prism (Graphpad Software) and IgorPro, and experimental numbers reported as independent biological replicates. No animals or data were excluded from the analysis and results were considered significant at P<0.05.

mouse islets = experiment: Calcium imaging (fMCI) of beta cell activity in intact mouse islets; format: cell-based; conditions: for EC50: mouse islets, concentration-response, read-out: EC50 for cytosolic Ca^2+ rises; for effect of high doses on the effects of JB253 on cytosolic Ca^2+: JB253-treated mouse islets, 405 nm, n = 4-6 recordings
Description: Male and female CD1 and C57BL6 mice (8-20 weeks) were maintained in a specific pathogen-free facility under a 12h light-dark cycle with ad libitum access to water and food. Animals were euthanized using a schedule-1 method and pancreatic islets isolated by collagenase digestion. All procedures were regulated by the Home Office according to the Animals (Scientific Procedures) Act 1986 of the United Kingdom (PPL 70/7349), and study approval granted by the Animal Welfare and Ethical Review Body (AWERB) of Imperial College. No randomization was used for animal experimentation, since mice were only used as tissue donors.
(§2) Islets were loaded for 30-45 min in fluo2-AM (10 µM) or for 2-5 min with X-Rhod 1 (5 µM) diluted with a mixture of DMSO (0.01%, wt/vol) and pluronic acid (0.001%, wt/vol; all Invitrogen) in a bicarbonate buffer containing in mM: 120 NaCl, 4.8 KCl, 1.25 NaH2PO4, 24 NaHCO3, 2.5 CaCl2, 1.2 MgCl2 and 5 D-glucose. fMCI was performed using a Zeiss Axiovert M200 fitted with a Nipkow spinning-disk head (Yokogawa CSU-10) and a 10x/0.3NA objective adjusted for chromatic aberration (EC Plan-Neofluar, Zeiss). Pulsed excitation (frequency = 0.5 Hz; exposure = 263 ms) was delivered at 491 nm and emitted signals recorded at 500-550 nm with a back-illuminated 16-bit EM-CCD camera (ImageEM 9100-13; Hamamatsu). During recording, islets were maintained at 35-36 °C in the presence of 50 µM JB253 using a custom-manufactured perfusion and heating system (Digital Pixel). Drugs were introduced through the perfusion system at the indicated time points and concentrations. Violet light was delivered by a 405 ± 5 nm laser coupled to the side port of the microscope and configured to fill the back of the objective with light using an Optospot (Cairn Research). Blue light was delivered using 440 ± 5 nm and 491 ± 5 nm diode lasers controlled by a laser merge module (Spectral Applied Research) to allow simultaneous exposure and acquisition. For single islet targeting, a 473 ± 5 nm laser was coupled to a custom-manufactured dichroic array (Cairn Research), allowing user-directed steering of a collimated laser spot across the field of view. Signals were normalized using F/Fmin where F is fluorescence at a given timepoint and Fmin is minimum fluorescence.
as §1

human islets = experiment: Calcium imaging in isolated human islets of Langerhans; format: cell-based; conditions: JB253-treated human islets, 440 nm and 491 nm
Description: Human islets were isolated from deceased heart-beating donors (n = 3) at transplantation facilities in Pisa and Edmonton with the relevant national and local ethical permissions, including consent from next of kin where required, and cultured in RPMI supplemented with 5.5 mM D-glucose, 10% foetal calf serum (FCS), 100 U penicillin, 100 µg streptomycin and 0.25/µl fungizone (37 °C, 5% CO2). All studies involving human tissue were approved by the National Research Ethics Committee (NRES) London (Fulham), REC # 07/H0711/114.
as §2, with “For single islet targeting, a 473 ± 5 nm laser was coupled to a custom-manufactured dichroic array (Cairn Research), allowing user-directed steering of a collimated laser spot across the field of view.” left out

isolated murine islets = experiment: Insulin secretion from isolated islets (static incubation, radioimmunoassay); format: cell-based, mouse; conditions: diazoxide 250 µM, JB253 50 µM, illumination
Description: Insulin secretion was measured from 6 islets per well, incubated at 37 °C for 30 min in 0.5 ml of Krebs-HEPES-bicarbonate (KHB) solution (containing in mM: 130 NaCl, 3.6 KCl, 1.5 CaCl2, 0.5 MgSO4, 0.5 NaH2PO4, 2 NaHCO3, 10 HEPES, and 0.1 % (wt/vol) BSA, pH 7.4) containing the indicated glucose concentration and tolbutamide (100 µM), glimeperide (50 µM), diazoxide (250 µM) and JB253 (50 µM). Illumination (λ = 405 ± 20 nm and 485 ± 6 nm) was performed using a Fluostar Optima microplate reader (BMG Labtech) set to deliver 30 s of light every 2 min to the designated wells. Insulin concentrations were determined in duplicate using specific radioimmunoassay (EMD Millipore).

Epac2A = experiment: Epac2-camps FRET imaging in HEK293t cells; format: cell-based; conditions: HEK293t cells expressing full length Epac2-camps; JB253 as cis-JB253 (excitation 440 nm)
Description: For EPAC2 imaging, HEK293t were transfected with the full length construct for […] containing the cAMP and sulfonylurea binding domains (obtained from Prof. […] Excitation was delivered at 440 nm and emitted signals captured using […] filters. FRET was calculated as the ratio of Cerulean (CFP):Venus (YFP) fluorescence. Signals were normalized using R/R0 where R is the ratio at a given timepoint and R0 is the minimum ratio.

T1 sequence (Q09429 whole entry): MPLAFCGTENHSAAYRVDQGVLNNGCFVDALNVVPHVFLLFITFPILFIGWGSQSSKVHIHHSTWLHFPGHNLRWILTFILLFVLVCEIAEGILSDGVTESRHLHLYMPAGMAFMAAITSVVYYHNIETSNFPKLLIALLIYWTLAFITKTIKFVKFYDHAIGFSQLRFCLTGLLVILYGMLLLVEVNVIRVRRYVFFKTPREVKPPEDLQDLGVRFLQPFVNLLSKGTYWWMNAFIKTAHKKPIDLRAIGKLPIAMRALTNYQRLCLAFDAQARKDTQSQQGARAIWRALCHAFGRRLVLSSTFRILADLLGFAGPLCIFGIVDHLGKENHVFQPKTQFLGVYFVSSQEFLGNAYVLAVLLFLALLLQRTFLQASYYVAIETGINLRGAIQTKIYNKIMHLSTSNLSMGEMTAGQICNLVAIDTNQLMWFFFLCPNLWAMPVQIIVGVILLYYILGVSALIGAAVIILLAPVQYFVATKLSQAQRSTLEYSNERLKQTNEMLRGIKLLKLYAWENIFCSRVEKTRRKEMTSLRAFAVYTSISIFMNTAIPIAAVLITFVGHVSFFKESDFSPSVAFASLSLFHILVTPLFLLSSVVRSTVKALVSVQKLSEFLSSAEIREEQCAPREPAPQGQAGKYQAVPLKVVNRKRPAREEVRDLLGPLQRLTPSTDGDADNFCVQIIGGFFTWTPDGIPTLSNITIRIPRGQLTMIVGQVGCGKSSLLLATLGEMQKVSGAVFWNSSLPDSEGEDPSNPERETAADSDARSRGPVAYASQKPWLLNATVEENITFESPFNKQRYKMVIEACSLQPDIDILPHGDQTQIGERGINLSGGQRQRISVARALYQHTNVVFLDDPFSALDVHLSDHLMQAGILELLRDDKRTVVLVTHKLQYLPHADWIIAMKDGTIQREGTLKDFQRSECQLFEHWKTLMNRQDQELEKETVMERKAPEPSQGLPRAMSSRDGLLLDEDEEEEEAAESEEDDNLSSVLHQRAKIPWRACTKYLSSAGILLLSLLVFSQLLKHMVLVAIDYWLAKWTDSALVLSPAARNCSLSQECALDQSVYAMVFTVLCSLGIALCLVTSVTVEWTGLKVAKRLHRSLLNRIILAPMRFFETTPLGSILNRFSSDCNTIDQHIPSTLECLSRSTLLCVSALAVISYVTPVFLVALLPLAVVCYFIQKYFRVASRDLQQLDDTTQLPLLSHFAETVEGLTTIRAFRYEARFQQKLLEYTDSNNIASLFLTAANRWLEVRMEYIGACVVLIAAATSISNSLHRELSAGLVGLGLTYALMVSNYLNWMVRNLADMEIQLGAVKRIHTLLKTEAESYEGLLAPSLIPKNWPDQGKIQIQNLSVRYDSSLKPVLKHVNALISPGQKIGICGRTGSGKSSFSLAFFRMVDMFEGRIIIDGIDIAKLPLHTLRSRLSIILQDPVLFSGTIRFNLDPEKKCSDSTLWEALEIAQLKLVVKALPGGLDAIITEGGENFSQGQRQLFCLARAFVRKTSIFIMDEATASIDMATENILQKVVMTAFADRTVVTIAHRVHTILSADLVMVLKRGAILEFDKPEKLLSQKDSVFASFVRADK

SMILES | IC50 (SUR1; cis-state may relax thermally during washing) [µM] | EC50 (mouse islets) [µM] | effect of high doses on the effects of JB253 on cytosolic Ca^2+ (mouse islets) | effect on JB253 effects on intracellular Ca^2+ (human islets) | effect on light-induced insulin secretion of JB253-treated islets (isolated murine islets) | IC50 (SUR1) [µM] | ΔR/R0 (decrease in FRET) (Epac2A) [AU]
CCN(CC)c1ccc(/N=N\c2ccc(S(=O)(=O)NC(=O)NC3CCCCC3)cc2)cc1 [cis-JB253] | 14.8 | 0.675 |  |  |  |  | 
CC1=NS(=O)(=O)c2cc(Cl)ccc2N1 [diazoxide, reference compound] |  |  | suppress | reversed | partially reversed |  | 
CCC1=C(C)CN(C(=O)NCCc2ccc(S(=O)(=O)NC(=O)N[C@H]3CC[C@H](C)CC3)cc2)C1=O [glimepiride, reference compound] |  | 0.399 |  |  |  | 0.0083 | 0.052
CCCCNC(=O)NS(=O)(=O)c1ccc(C)cc1 [tolbutamide, reference compound] |  |  | augment | mimicked |  |  | 
